Columns and labels:
Assay type in all cases: in vivo
[1] = test system: Abutilon theophrasti (ABUTH, velvetleaf); assay: Pre-emergence herbicidal evaluation; conditions: 3 weeks after treatment
Source text: (§1) The pre-emergence herbicidal activity of the compounds of the present invention is exemplified by the following test in which the seeds of a variety of monocotyledonous and dicotyledonous plants are seperately mixed with potting soil and planted on top of approximately one inch of soil in separate post. After planting, the pots are sprayed with the selected aqueous acetone solution. containing test compound in sufficient quantity to provide the equivalent of about 0.025 to 0.4 kg per hectare of test compound per pot. The treated pots are then placed on greenhouse benches, watered and cared for in accordance with conventional greenhouse procedures. From 3 weeks after treatment, the tests are terminated and each pot is examined and rated according to the rating system set forth below. [table] [table]

[2] = test system: Alopecurus myosuroides (ALOMY, black grass); assay: Pre-emergence herbicidal evaluation; conditions: 3 weeks after treatment
Source text: as §1

[3] = test system: Echinochloa grus galli (ECHCG, barnyard grass); assay: Pre-emergence herbicidal evaluation; conditions: 3 weeks after treatment
Source text: as §1

[4] = test system: Galium aparine (GALAP, cleaver); assay: Pre-emergence herbicidal evaluation; conditions: 3 weeks after treatment
Source text: as §1

[5] = test system: Ipomoea hederacea (IPOHE, morning glory); assay: Pre-emergence herbicidal evaluation; conditions: 3 weeks after treatment
Source text: as §1

[6] = test system: Matricaria inodora (MATIN, mayweed); assay: Pre-emergence herbicidal evaluation; conditions: 3 weeks after treatment
Source text: as §1

[7] = test system: Setaria viridis (SETVI, green foxtail); assay: Pre-emergence herbicidal evaluation; conditions: 3 weeks after treatment
Source text: as §1

[8] = test system: Stellaria media (STEME, chickweed); assay: Pre-emergence herbicidal evaluation; conditions: 3 weeks after treatment
Source text: as §1

[9] = test system: Glycine max (GLXMA, soyabeans); assay: Pre-emergence herbicidal evaluation (crop); conditions: 3 weeks after treatment
Source text: as §1

[10] = test system: Triticum aestivum (TRZAW, winter wheat); assay: Pre-emergence herbicidal evaluation (crop); conditions: 3 weeks after treatment
Source text: as §1

[11] = test system: Zea mays (ZEAMX, maize); assay: Pre-emergence herbicidal evaluation (crop); conditions: 3 weeks after treatment
Source text: as §1

[12] = test system: Abutilon theophrasti (ABUTH, velvetleaf); assay: Post-emergence herbicidal evaluation; conditions: 3 weeks after treatment
Experimental: (§2) These acetone solutions are diluted with water and the resulting formulations applied at dosage levels equivalent of about 0.025 to 0.4 kg per hectare of test compound per pot. After spraying the plants are placed on greenhouse benches and are cared for in the usual manner, commensurate with conventional greenhouse practices. From 3 weeks after treatment, the seedling plants are examined and rated according to the rating system provided above. A rating 0 indicates growth as untreated control, a rating 9 indicates death.

[13] = test system: Alopecurus myosuroides (ALOMY, black grass); assay: Post-emergence herbicidal evaluation; conditions: 3 weeks after treatment
Experimental: as §2

[14] = test system: Dolium multiflorum (LOLMU, ryegrass); assay: Post-emergence herbicidal evaluation; conditions: rate 0.100 kg/ha, 3 weeks after treatment
Experimental: as §2

[15] = test system: Echinochloa grus galli (ECHCG, barnyard grass); assay: Post-emergence herbicidal evaluation; conditions: 3 weeks after treatment
Experimental: as §2

[16] = test system: Galium aparine (GALAP, cleaver); assay: Post-emergence herbicidal evaluation; conditions: 3 weeks after treatment
Experimental: as §2

[17] = test system: Ipomoea hederacea (IPOHE, morning glory); assay: Post-emergence herbicidal evaluation; conditions: 3 weeks after treatment
Experimental: as §2

[18] = test system: Matricaria inodora (MATIN, mayweed); assay: Post-emergence herbicidal evaluation; conditions: 3 weeks after treatment
Experimental: as §2

[19] = test system: Setaria viridis (SETVI, green foxtail); assay: Post-emergence herbicidal evaluation; conditions: 3 weeks after treatment
Experimental: as §2

[20] = test system: eight weed species; assay: Pre-emergence herbicidal evaluation, overall weed control; conditions: crop selective dose of 0.1 kg/ha
Source text: as §1, with “below.” for “below. [table] [table]”
Thus, there is evidence for the good potential of the compounds of the invention for excellent cross spectrum control of both grasses and broadleaf weeds in key crops.

`Cc1cc(OCCSC(F)(F)F)nc(Oc2cc(C(F)(F)F)nn2C)c1` [Example 1, 2-(1-methyl-3-trifluoromethylpyrazol-5-yloxy)-6-(2-trifluoromethylthioethoxy)-4-methylpyridine] was tested, and the ABUTH rating ([1]; rate 0.025 kg/ha) was 8 (8 - Approaching complete kill), the ABUTH rating ([1]; rate 0.100 kg/ha) was 9 (9 - Complete kill) and the ABUTH rating ([1]; rate 0.400 kg/ha) was 9 (9 - Complete kill). The ALOMY rating ([2]; rate 0.025 kg/ha) was 7 (7 - Good herbicidal effect), the ALOMY rating ([2]; rate 0.100 kg/ha) was 9 (9 - Complete kill) and the ALOMY rating ([2]; rate 0.400 kg/ha) was 9 (9 - Complete kill). The ECHCG rating ([3]; rate 0.025 kg/ha) was 7 (7 - Good herbicidal effect), the ECHCG rating ([3]; rate 0.100 kg/ha) was 9 (9 - Complete kill) and the ECHCG rating ([3]; rate 0.400 kg/ha) was 9 (9 - Complete kill). For the same molecule, the GALAP rating ([4]; rate 0.025 kg/ha) was 6 (6 - Herbicidal effect), the GALAP rating ([4]; rate 0.100 kg/ha) was 8 (8 - Approaching complete kill) and the GALAP rating ([4]; rate 0.400 kg/ha) was 8 (8 - Approaching complete kill). The IPOHE rating ([5]; rate 0.025 kg/ha) was 6 (6 - Herbicidal effect), the IPOHE rating ([5]; rate 0.100 kg/ha) was 9 (9 - Complete kill) and the IPOHE rating ([5]; rate 0.400 kg/ha) was 9 (9 - Complete kill). The MATIN rating ([6]; rate 0.025 kg/ha) was 9 (9 - Complete kill), the MATIN rating ([6]; rate 0.100 kg/ha) was 9 (9 - Complete kill) and the MATIN rating ([6]; rate 0.400 kg/ha) was 9 (9 - Complete kill). For the same molecule, the SETVI rating ([7]; rate 0.025 kg/ha) was 9 (9 - Complete kill), the SETVI rating ([7]; rate 0.100 kg/ha) was 9 (9 - Complete kill) and the SETVI rating ([7]; rate 0.400 kg/ha) was 9 (9 - Complete kill). The STEME rating ([8]; rate 0.025 kg/ha) was 9 (9 - Complete kill), the STEME rating ([8]; rate 0.100 kg/ha) was 9 (9 - Complete kill) and the STEME rating ([8]; rate 0.400 kg/ha) was 9 (9 - Complete kill). For the same molecule, the GLXMA rating ([9]; rate 0.025 kg/ha) was 2 (2 - Slight effect), the GLXMA rating ([9]; rate 0.100 kg/ha) was 3 (3 - Moderate effect) and the GLXMA rating ([9]; rate 0.400 kg/ha) was 4 (4 - Injury). For the same molecule, the TRZAW rating ([10]; rate 0.025 kg/ha) was 1 (1 - Trace effect), the TRZAW rating ([10]; rate 0.100 kg/ha) was 2 (2 - Slight effect) and the TRZAW rating ([10]; rate 0.400 kg/ha) was 3 (3 - Moderate effect). The ZEAMX rating ([11]; rate 0.025 kg/ha) was 2 (2 - Slight effect), the ZEAMX rating ([11]; rate 0.100 kg/ha) was 4 (4 - Injury) and the ZEAMX rating ([11]; rate 0.400 kg/ha) was 5 (5 - Definite injury). The ABUTH rating ([12]; rate 0.025 kg/ha) was 5 (5 - Definite injury), the ABUTH rating ([12]; rate 0.100 kg/ha) was 6 (6 - Herbicidal effect) and the ABUTH rating ([12]; rate 0.400 kg/ha) was 6 (6 - Herbicidal effect). The ALOMY rating ([13]; rate 0.025 kg/ha) was 4 (4 - Injury), the ALOMY rating ([13]; rate 0.100 kg/ha) was 7 (7 - Good herbicidal effect) and the ALOMY rating ([13]; rate 0.400 kg/ha) was 8 (8 - Approaching complete kill). For the same molecule, the LOLMU rating [14] was 8 (8 - Approaching complete kill), the ECHCG rating ([15]; rate 0.025 kg/ha) was 6 (6 - Herbicidal effect) and the ECHCG rating ([15]; rate 0.100 kg/ha) was 9 (9 - Complete kill). The ECHCG rating ([15]; rate 0.400 kg/ha) was 9 (9 - Complete kill), the GALAP rating ([16]; rate 0.025 kg/ha) was 2 (2 - Slight effect) and the GALAP rating ([16]; rate 0.100 kg/ha) was 5 (5 - Definite injury). For the same molecule, the GALAP rating ([16]; rate 0.400 kg/ha) was 8 (8 - Approaching complete kill), the IPOHE rating ([17]; rate 0.025 kg/ha) was 8 (8 - Approaching complete kill) and the IPOHE rating ([17]; rate 0.100 kg/ha) was 8 (8 - Approaching complete kill). For the same molecule, the IPOHE rating ([17]; rate 0.400 kg/ha) was 9 (9 - Complete kill), the MATIN rating ([18]; rate 0.025 kg/ha) was 5 (5 - Definite injury) and the MATIN rating ([18]; rate 0.100 kg/ha) was 7 (7 - Good herbicidal effect). The MATIN rating ([18]; rate 0.400 kg/ha) was 8 (8 - Approaching complete kill), the SETVI rating ([19]; rate 0.025 kg/ha) was 5 (5 - Definite injury) and the SETVI rating ([19]; rate 0.100 kg/ha) was 8 (8 - Approaching complete kill). For the same molecule, the SETVI rating ([19]; rate 0.400 kg/ha) was 8 (8 - Approaching complete kill) and the “weed control (in words)” value [20] was “complete control”.
